# Assay results taken from patent US20200309872A1, “APPARATUS AND METHOD OF AIR-SUSPENDED BIOFABRICATION OF TISSUE-ENGINEERED ORGAN CONSTRUCTS AND CONGLOMERATES OF SPHEROIDS, CELLS AND OTHER BIOLOGICAL OBJECTS BY USING MAGNETIC FIELD” (priority 2019, published 2020).
# Experiments:
# Type in all cases: cell-based
# [1] = test system: chondrospheres from primary sheep chondrocytes; assay: Histological analysis on semi-thin sections of tissue spheroids (toluidine blue)
# Procedure: Tissue spheroids were fixed with 2.5% glutaraldehyde/PBS and then treated with 1% osmium tetraoxide/PBS. The samples were dehydrated by soaking in a series of solutions of increasing concentrations of ethanol, stained with 1% uranyl acetate/70% ethanol and finally embedded to araldite-epon mixture. Semi-thin sections were prepared on a LKB-III ultratome (Sweden), stained with 1% toluidine blue and then examined using a light microscope (Leica DM 2500, Germany) equipped with a digital camera (Leica DFC 290, Germany).
# A histological analysis on semi-thin sections of 3-day-old tissue spheroids was performed in order to estimate possible toxic effects and to determine an optimal nontoxic Gd3+ concentration (FIG. 3a). […] Scale bar—100μm.
# [2] = test system: chondrospheres from primary sheep chondrocytes; assay: Tissue spheroid viability, CellTiter-Glo 3D (cytoplasmic ATP luminescence); settings: 24 hours of incubation
# Procedure: The viability of tissue spheroids was assessed using the CellTiter-Glo 3D kit according to the manufacturer protocol. Briefly, 3-day-old tissue spheroids with a starting cell number of 8000 cells were placed in 0, 50 and 250 mM Gd3+ concentrations for 24 hours. Then CellTiter-Glo 3D kit was added and luminescence was recorded after 30 min incubation using VICTOR X3 Multilabel Plate Reader (Perkin Elmer, USA).
# (§1) The viability of cells within tissue spheroids was analyzed by measuring the luminescent signal generated by luciferin-luciferase interconnection as a function of cytoplasmic ATP concentration. […] The highly statistically significant difference (p<0.0005) in cell density corresponded to 85% in 50 mM Gd3+ solution compared to 100% in 0 mM Gd3+ solution, while the cell density at 250mM Gd3+ concentration was 40% (FIG. 3c).
# [3] = test system: chondrospheres from primary sheep chondrocytes; assay: Estimation of spheroid cell density by cell counting on semi-thin sections
# Procedure: Spheroid cell density was estimated by analysis of semi-thin sections of tissue spheroids using Image J 1.48v software (NIH, Bethesda, Md., USA).
# as §1
# [4] = test system: chondrospheres from primary sheep chondrocytes; assay: Mechanical testing of tissue spheroids (parallel-plate compression, Microsquisher); settings: for elastic modulus of spheroids: 24 hours, 0 mM control 2.91±0.15 kPa
# Procedure: The mechanical properties of tissue spheroids were measured by a micro-scale parallel-plate compression testing system Microsquisher (CellScale, Canada) with associated SquisherJoy software. Tissue spheroids with a starting cell number of 8000 cells were formed using Corning spheroid microplates. They were cultured 3 days and then placed in 0, 50 and 18 250 mM Gd3+ concentrations for 24 hours prior to mechanical characterization. For mechanical testing spheroids were placed in a PBS-filled bath at 37° C. and compressed to 50% deformation in 20 sec. The microbeams with diameters 152.4 μm (recommended max force […]) and 304.8 μm (recommended max force […]) were employed depending on the stiffness and sensitivity required to measure tissue spheroids from different cell types. The force-displacement data obtained from the compression test were converted to stress-strain curves and the lower portion of the curve (0-20% strain) was used to obtain a linear regression line and estimate the Young's modulus. In each group eight samples of spheroids were measured.
# The influence of gadolinium Gd3+ on mechanical properties of tissue spheroids was estimated by tensiometry using parallel plates modification. […] The values of elastic modulus of spheroids in 0 and 50 mM Gd3+ solutions were 2.91±0.15 kPa and 18 2.95±0.1 kPa, correspondingly. […] This observation can be explained by low viability of tissue spheroids in 250 mM Gd3+ solution.
# The sharp rise of the curve in the area of high strain values is associated with an increase of the tissue spheroid cross section. […] The stress-strain curve changes practically linearly before this strain; in this section we calculated the Young's modulus.
# [5] = test system: chondrospheres from primary sheep chondrocytes; assay: Spheroid fusion assay (spheroid doublets)
# Procedure: Spheroid fusion assay was performed using Corning spheroid microplates (Corning, cat.# 4520). Pairs of 3-day-old tissue spheroids with a starting cell number of 8000 cells were placed in contact in 0, 50 and 250 mM Gd3+ concentrations and incubated for 7 days. Bright-field images of spheroid doublets were obtained at points 0 h, 4 h, 6 h, 1 day, 2 days, 3 days, 4 days and 7 days using Nikon Eclipse Ti-S microscope. Contact length, intersphere angle and doublet length were measured using Image J 1.48v software (NIH, Bethesda, Md., USA) and plotted as a function of time using GraphPad Prism software (GraphPad Software, Inc., La Jolla, Calif.). Doublet length (FIG. 5) was normalized to initial doublet length. Measurements for each parameter were reported as mean ±S.E.M.
# To investigate the fusion of tissue spheroids at different Gd3+ concentrations, the pairs of spheroids were placed in contact with each other in the same well of low adhesion microplate and allowed to fuse for 7 days. The kinetics of tissue spheroid fusion was monitored and analyzed daily at bright-field under inverted microscope. Contact length, intersphere angle and doublet length were measured. […] Spheroid doublet in 0 mM Gd3+ solution shortened faster than spheroid doublet in 50 mM Gd3+ solution.
# [6] = test system: chondrospheres from primary sheep chondrocytes; assay: Fusion of 30 chondrospheres into a microtissue construct in non-adhesive microplate
# Procedure: To check the possibility of microtissue construct biofabrication at different concentrations of Gd3+, 30 chondrospheres were placed in the same well of non-adhesive microplate and allowed fusion for 48 hours (FIG. 5c). […] Scale bar −500 μm.
structure (smiles),measurement,setting,value
"CNC(=O)CN(CCN(CCN(CC(=O)[O-])CC(=O)NC)CC(=O)[O-])CC(=O)[O-].[Gd+3] [Gd3+, Gadodiamide]","cell density (histology, qualitative)",[1]; 50 mM Gd3+ solution,cell density did not change
same,cytoplasm staining,[1]; 50 mM Gd3+ solution,slightly reduced
same,toxic effect on chondrospheres morphology,"[1]; 250 mM Gd3+, 3-day-old spheroids, toluidine blue staining",severe toxic effect
same,"cell density (histology, qualitative)","[1]; 250 mM Gd3+, cell death and apoptosis, pycnotic nuclei, extracellular debris",cell density dramatically reduced
same,viability of tissue spheroids,[2]; 50 mM Gd3+,remained viable
same,viability of tissue spheroids,[2]; 250 mM Gd3+,significant toxic effect
same,cell density compared to 100% in 0 mM Gd3+ solution,[3]; 50 mM Gd3+ solution,85%
same,cell density compared to 100% in 0 mM Gd3+ solution,[3]; 250 mM Gd3+,40%
same,effect on tissue spheroids Young's modulus,[4]; 50 mM Gd3+ in the growth medium,does not affect
same,elastic modulus of spheroids,[4]; 50 mM Gd3+,2.95±0.1 kPa
same,decrease of Young's modulus,[4]; 250 mM Gd3+,~93%
same,elastic modulus of spheroids,[4]; 250 mM Gd3+,0.14±0.05 kPa
same,"fusion of spheroid pair (contact length, intersphere angle, doublet length)","[5]; 50 mM Gd3+, up to 7 days",contact lengths and intersphere angles increased as a function of time and doublet lengths shortened gradually
same,cytotoxicity,[5]; 250 mM Gd3+,high cytotoxicity
same,fusion of spheroid pair,"[5]; 250 mM Gd3+, up to 7 days",continued to fuse during first 24 hours and then no further progressive aggregation was observed
same,intersphere angle,"[5]; seventh day of incubation, follows the 0 and 50 mM Gd3+ results, concentration not restated, indicates complete fusion",179 °
same,construct formation from 30 chondrospheres,"[6]; 50 mM Gd3+, 2 days of incubation",formation of compact constructs was observed
same,construct formation from 30 chondrospheres,"[6]; 250 mM Gd3+, 48 hours",no constructs were formed
